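Where inhibition never reached the appropriate level, the endpoint shown equals the highest concentration tested. Otherwise, values were interpolated linearly from a five-concentration, 48-hour dose response in 96-well plates. GI50 = concentration required for 50% inhibition of growth. Definition used: TGI = concentration required for complete inhibition of growth.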
Key:
Assay in all cases: growth of human tumour cells (NCI), 48 h
[1] = system: MDA-MB-231 breast
[2] = system: LOX IMVI melanoma
[3] = system: CCRF-CEM leukemia
[4] = system: DU-145 prostate
[5] = system: M14 melanoma
[6] = system: SF-268 CNS
[7] = system: A549 NSCLC
[8] = system: SNB-75 CNS
[9] = system: SN12C renal
[10] = system: MOLT-4 leukemia
[11] = system: SK-OV-3 ovarian
[12] = system: OVCAR-8 ovarian
[13] = system: HOP-62 NSCLC
[14] = system: TK-10 renal
[15] = system: K-562 leukemia
[16] = system: NCI-H226 lung
[17] = system: BT-549 breast
[18] = system: NCI-H522 lung
[19] = system: HS 578T breast
[20] = system: RXF 393 renal
[21] = system: SW-620 colon
[22] = system: NCI/ADR-RES ovarian
[23] = system: ACHN renal
[24] = system: HT29 colon
[25] = system: KM12 colon
[26] = system: NCI-H23 lung
[27] = system: SK-MEL-28 melanoma
[28] = system: OVCAR-4 ovarian
[29] = system: MALME-3M melanoma
[30] = system: SR leukemia
[31] = system: COLO 205 colon
[32] = system: HCT-15 colon
[33] = system: SF-539 CNS
[34] = system: MCF7 breast
[35] = system: PC-3 prostate
[36] = system: U251 CNS
[37] = system: HCC-2998 colon
[38] = system: NCI-H460 lung
[39] = system: UACC-62 melanoma
[40] = system: UO-31 renal
[41] = system: A498 renal
[42] = system: HOP-92 NSCLC
[43] = system: T-47D breast
[44] = system: SF-295 CNS
[45] = system: EKVX NSCLC
[46] = system: SK-MEL-2 melanoma
[47] = system: SNB-19 CNS
[48] = system: SK-MEL-5 melanoma
[49] = system: OVCAR-5 ovarian
[50] = system: HL-60(TB) leukemia
[51] = system: CAKI-1 renal
[52] = system: IGROV1 ovarian
[53] = system: MDA-MB-435
[54] = system: RPMI-8226 leukemia
[55] = system: UACC-257 melanoma
[56] = system: 786-0 renal

For `Nc1ccccc1NC(=O)c1ccc(NC(=O)C/C=C/c2cccnc2)cn1`, the GI50 [1] was 3.35 µM, the TGI [1] was greater than 50 µM and the GI50 [2] was 0.286 µM. For the same compound, the TGI [2] was 3.95 µM, the GI50 [3] was 0.216 µM and the TGI [3] was greater than 50 µM. The GI50 [4] was 0.544 µM, the TGI [4] was 2.06 µM and the GI50 [5] was 0.704 µM. For the same compound, the TGI [5] was 11.4 µM, the GI50 [6] was 1.3 µM and the TGI [6] was greater than 40 µM. The GI50 [7] was 2.04 µM, the TGI [7] was greater than 50 µM and the GI50 [8] was 0.674 µM. For the same compound, the TGI [8] was greater than 47.6 µM, the GI50 [9] was 0.329 µM and the TGI [9] was greater than 50 µM. It also gave a GI50 [10] of 0.724 µM, a TGI [10] greater than 50 µM and a GI50 [11] of 1.67 µM. It also gave a TGI [11] greater than 27.4 µM, a GI50 [12] of 0.0839 µM and a TGI [12] greater than 50 µM. It also gave a GI50 [13] of 1.11 µM, a TGI [13] greater than 24.9 µM and a GI50 [14] of 0.0583 µM. For the same compound, the TGI [14] was 1.8 µM, the GI50 [15] was 0.213 µM and the TGI [15] was greater than 50 µM. The GI50 [16] was 1.08 µM, the TGI [16] was 19.6 µM and the GI50 [17] was 0.777 µM. The TGI [17] was 3.73 µM, the GI50 [18] was 0.334 µM and the TGI [18] was 3.37 µM. It also gave a GI50 [19] of 0.826 µM, a TGI [19] of 37.1 µM and a GI50 [20] of 0.864 µM. It also gave a TGI [20] of 5.9 µM, a GI50 [21] of 0.188 µM and a TGI [21] greater than 14.8 µM. It also gave a GI50 [22] of 1.16 µM, a TGI [22] greater than 50 µM and a GI50 [23] of 1.52 µM. The TGI [23] was greater than 50 µM, the GI50 [24] was 0.531 µM and the TGI [24] was greater than 33.9 µM. The GI50 [25] was 1.43 µM, the TGI [25] was greater than 20.5 µM and the GI50 [26] was 1.45 µM. It also gave a TGI [26] greater than 24.9 µM, a GI50 [27] of 0.866 µM and a TGI [27] of 2.65 µM. It also gave a GI50 [28] of 1.99 µM, a TGI [28] greater than 50 µM and a GI50 [29] of 0.19 µM. It also gave a GI50 [30] of 0.435 µM, a TGI [30] greater than 50 µM and a GI50 [31] of 0.445 µM. For the same compound, the TGI [31] was 2.39 µM, the GI50 [32] was 0.523 µM and the TGI [32] was greater than 50 µM. For the same compound, the GI50 [33] was 0.148 µM, the TGI [33] was 3.07 µM and the GI50 [34] was 0.806 µM. The TGI [34] was greater than 13.5 µM, the GI50 [35] was 0.806 µM and the TGI [35] was greater than 50 µM. It also gave a GI50 [36] of 0.732 µM, a TGI [36] greater than 23.6 µM and a GI50 [37] of 0.801 µM. It also gave a TGI [37] of 4.26 µM, a GI50 [38] of 0.745 µM and a TGI [38] greater than 37.4 µM. For the same compound, the GI50 [39] was 0.745 µM, the TGI [39] was 3.6 µM and the GI50 [40] was 0.702 µM. For the same compound, the TGI [40] was 16.6 µM, the GI50 [41] was 0.347 µM and the TGI [41] was 1.62 µM. It also gave a GI50 [42] of 0.0953 µM, a TGI [42] of 1.26 µM and a GI50 [43] of 0.279 µM. It also gave a TGI [43] greater than 13.7 µM, a GI50 [44] of 1.4 µM and a TGI [44] of 8.28 µM. The GI50 [45] was 2.38 µM, the TGI [45] was greater than 50 µM and the GI50 [46] was 0.816 µM. The TGI [46] was 5.09 µM, the GI50 [47] was 1.72 µM and the TGI [47] was greater than 50 µM. For the same compound, the GI50 [48] was 0.958 µM, the TGI [48] was 2.37 µM and the GI50 [49] was 0.509 µM. For the same compound, the TGI [49] was greater than 50 µM, the GI50 [50] was 0.284 µM and the TGI [50] was greater than 29.4 µM. For the same compound, the GI50 [51] was 1.68 µM, the TGI [51] was 13 µM and the GI50 [52] was 0.601 µM. For the same compound, the TGI [52] was greater than 50 µM, the GI50 [53] was 1.1 µM and the TGI [53] was greater than 16 µM. The GI50 [54] was 0.336 µM, the TGI [54] was greater than 10.2 µM and the GI50 [55] was 0.798 µM. The TGI [55] was greater than 13.3 µM, the GI50 [56] was 1.52 µM and the TGI [56] was 8.17 µM.
